Experimental findings from publication PMC9322052, “Synthesis and Biological Activity Screening of Newly Synthesized Trimethoxyphenyl-Based Analogues as Potential Anticancer Agents” (Molecules, 2022) are described below.

One experiment has as its system β-tubulin. Briefly: Tubulin polymerization inhibition (beta-tubulin ELISA in HepG2 cells). The format is cell-based, human. Conditions: HepG2 cells, each compound at its IC50 concentration (9 1.38, 10 2.52, 11 3.21, podo 2.08 μM), ELISA. On the procedure: The selected candidates were tested at a concentration equal to their IC50 concentration dose value. […] See Section 3.3.2 in Supplementary Material. […] page 18: 3.3. Biological studies 3.3.1. Cytotoxic activity evaluation To measure the cytotoxic activity of the synthesized derivatives 2a-11 in hepatocel- lular carcinoma (HepG2) cell line (ATCC Cat No. HB-8065) as well as normal human liver cell line HL-7702 (ATCC Cat. No. 77402), cell viability assay was assessed using MTT assay method. Cells at density of 1 x 104 were seeded in a 96-well plate at 37 °C for 24 h under 5% CO2. After incubation, the cells were treated with different concentrations of the test compounds 2a-11 and incubated for 24 h, then 20 μl of MTT solution at 5 mg/mL was […] Dimethyl sulphoxide (DMSO) in volume of 100 μl was added to each well to dissolve the purple formazan that had formed. The color […] of the formazan product, which represents the growth condition of the cells, is quan- […] by using an ELISA plate reader (EXL 800, USA) at 570 nm absorbance. The experi- mental conditions were carried out with at least three replicates, and the experiments were repeated at least three times. 3.3.2. Tubulin inhibitions Assay […] according to the manufacturer's instructions using # abcam Human Beta-tubulin […] ELISA Kit ab245722. 3.3.3. Cell cycle analysis of compound 9 Cell cycle analysis in HepG2 cells was investigated using fluorescent Annexin V- FITC/ PI detection kit (BioVision EZCellTM Cell Cycle Analysis Kit Catalog #K920) by flow cytometry assay. […] twice in PBS. After that, the cells were incubated at 37 °C and 5% CO2. […] Apoptosis assay for compound 9 Apoptosis in HepG2 cells was investigated using fluorescent Annexin V-FITC/ PI de- tection kit (BioVision Annexin V-FITC Apoptosis Detection Kit, Catalog #: K101) by flow cy- tometry assay. […] The samples were immediately analyzed using FACS Calibur flow cytometer (Becton and Dickinson, Heidelberg, Germany). 3.3.5. Measurement of mitochondrial membrane potential (MMP) for compound 9 MMP was measured by FACS analysis using abcam ab113852TMRE Mitochondrial Membrane Potential Assay Kit with DiOC2(3) staining using MitoProbeTM DiOC2(3) Assay Kit for Flow Cytometry (M34150). After treatment with compound 9 at its IC50 concentra- tion, cells were stained with DiOC2(3) dye for 30 min in the incubator, then harvested and washed with PBS. […] The samples were immediately analyzed using cell Quest software. […] Effect on p53, Bax and Bcl-2 p53, Bax and Bcl2 enzyme activities in HepG2 cells were detected in the presence of com- pound 9 at its IC50 concentration (μM). The levels of the tumor suppressor gene p53, apoptotic markers Bax as well as the anti-apoptotic marker Bcl-2 were assessed using p53 ELISA kit, Human Bax ELISA kit and Bcl-2 Elisa kit. […]

The next experiment relates to Bax. Description: ELISA quantification of Bax level. Conditions: HepG2, 1.38 μM (IC50), 48 h. The format is cell-based, human. On the procedure:
Compound 9 was screened for its ability to activate p53 and Bax as well as downregulate the level of Bcl-2 to investigate the mechanistic apoptotic pathway that catalyzed the apoptosis process. HepG2 cells were treated with compound 9 at a concentration equal to its IC50 in μM, and the level of p53, Bax, and Bcl-2 was quantized using ELISA analysis. The results obtained for compound 9 show the increase in the level of p53 and Bax by 8.91- and 4.50-fold, respectively, compared with the negative control samples.
Apoptotic markers (p53, Bax and Bcl-2) were measured in HepG2 cells using ELISA analysis according to the manufacturer’s directions. See Section 3.3.6 in Supplementary Material.
Figure 6 (A) The quantification of p53. (B) The quantification of Bax. (C) The quantification of Bcl-2. HepG2 cells were treated with 1.38 μM of compound 9 for 48 h and apoptotic markers were determined by ELISA assay.
3.3.1. Cytotoxic activity evaluation
To measure the cytotoxic activity of the synthesized derivatives 2a-11 in hepatocel-lular carcinoma (HepG2) cell line (ATCC Cat No. HB-8065) as well as normal human liver cell line HL-7702 (ATCC Cat. No. 77402), cell viability assay was assessed using MTT assay method. […] The color inten-sity of the formazan product, which represents the growth condition of the cells, is quan-tified by using an ELISA plate reader (EXL 800, USA) at 570 nm absorbance. […]
A general note: An ELISA detects its analyte on a solid surface through an enzyme-linked reagent.

Turning to `COc1ccc(C2=N/C(=C\c3cc(OC)c(OC)c(OC)c3)C(=O)NN2c2ccccc2)cc1OC` [Compound 9, (Z)-3-(3,4-Dimethoxyphenyl)-2-Phenyl-5-(3,4,5-Trimethoxybenzylidene)-1,2-Dihydro-1,2,4-Triazin-6(5H)-one], the “β-tubulin polymerization inhibition percentage” value in the experiment on β-tubulin stood at 86.73%. Besides, in the experiment with Bax, the “increase in level of Bax compared with negative control” value is given as 4.50 fold.
